One molecule from PMC12501029, “Discovery of a CNS active GSK3 degrader using orthogonally reactive linker screening” (Nature Communications, 2025) can be followed below.

SMILES strings stand for the structures.

The test system of this test is HEK293 cells proteome. In words: Tandem-Mass-Tagging global (whole) proteomics in HEK293 cells. It counts as cell-based, human. The settings on record: 10 nM. Here is the method:
For unbiased degradation profiling of compounds at the proteome level, HEK293 cells were seeded onto 10 cm plates at a density of 2–2.5 × 10^6 cells per plate. […] After treatment, cells were washed twice with PBS (Gibco), collected in Lobinding tubes (Merck) and lysed in RIPA buffer supplemented with Protease (Roche) and Phosphatase (Roche) inhibitors as previously described for 20 min on ice. Lysates were cleared via centrifugation and protein concentrations were determined by using Pierce BCA assay (Thermo Scientific). Similarly, brain and liver tissues from control and KH1 (24) treated mice were lysed as described above. One hundred and fifty micrograms of protein from tissues or cells for each condition was aliquoted into LoBind tubes (Eppendorf) and the STRAP (Protifi) protocol was followed according to manufacturers’ instructions with slight modifications. Briefly, liquid protein samples mixed with 2× Lysis buffer (10%SDS, 100 mM TEAB pH 8.5), protein was reduced with 5 mM DTT final concentration at 55 °C for 15 min, alkylated (final concentration 20 mM IAA or CAA) at room temperature for 10 min and then acidified (12% phosphoric acid). Protein was then trapped into S-trap columns and washed with S-trap binding/wash buffer (100 mM TEAB in 90% methanol) via centrifugation at 4000 × g for 30 s. Cleaned proteins then went through tryptic digestion (Trypsin (Thermo Scientific) in 50 mM TEAB) overnight at 37 °C or 2 h at 47 °C. Digested peptides were sequentially eluted in 80 µL of 50 mM TEAB (Sigma–Aldrich), 0.2% formic acid (Sigma–Aldrich) and 50% acetonitrile (Sigma–Aldrich). Elutions were pooled and dried down. Dried and cleaned peptides were reconstituted in 110 µL of 100 mM TEAB. TMT-16-plex reagent (Thermo Scientific) was brought into room temperature and reconstituted in 40 µL of anhydrous acetonitrile. TMT reagent solution was transferred to the peptides and incubated on thermoshaker (Eppendorf) at 400 rpm at room temperature for 1 h in the dark. Peptides were quenched by the addition of 8 µL of 5% Hydroxylamine for 1 h at room temperature. TMT-labelled peptides were pooled together and dried down in the speedVac for downstream processing. […]
The dried peptides were reconstituted in 0.1% formic acid and analyzed on an Orbitrap Ascend mass spectrometer coupled to a Thermo Fisher Scientific Vanquish Neo UHPLC. […] The precursor ions for MS2 were isolated using a Quadrupole mass filter at a 0.7 Da isolation width, fragmented using a normalised 30% HCD of ion routing multipole and analyzed using ion trap. The top 10 MS2 fragment ions in a subsequent scan were isolated and fragmented using HCD at a 55% normalised collision energy and analyzed using an Orbitrap mass analyser at a 60,000 resolution, in the scan range of 100–500 m/z. […]

Regarding `Cn1nc(N2CCC(=O)NC2=O)c2ccc(CN3CCN(Cc4ccc(-c5cn(-c6ccc(-c7cn8nccc(C(=O)Nc9cnccc9N9CCOCC9)c8n7)cc6)nn5)nc4)CC3)cc21` [compound 24], the proteome-wide selectivity entry is “consistent proteome-wide selectivity for GSK3α and GSK3β” (4 and 24 h, vs DMSO and negative control 27); “exquisite selectivity for GSK3 paralogs” (2 h, vs DMSO and negative control). For the same molecule, the “β-catenin abundance, log2 fold change” value is given as “+0.63” (4 h, p < 0.0005) and “+0.89” (24 h, p < 0.005).
